Reference: US12319721B2 (Purdue Research Foundation, priority 2018, dated 2025)
Where no end group is shown, it is not given here. [ ]: non-standard residue; d: D form. mp4 = 4 mini PEG linker

What was measured:
healed fractured femur [1] = assay: Femur fracture model, postmortem four-point bend of the healed femur; type: in vivo, Swiss Webster mice; settings: 16 days, 0.1, 1 and 10 nmol daily subcutaneous, n=5
[2] = tested on: fracture callus of fractured femur; assay: Femur fracture model, microCT of the fracture callus, CD-1 mice; type: in vivo, CD-1 male mice; settings: 4 weeks, 50 nmol daily subcutaneous (50×), n=10
Protocol: The targeted conjugates were synthesized using standard Fmoc solid-phase peptide synthesis, as described above. To ensure the conjugates' activity, mouse pre osteo-blast (MCTC3-1) cells were treated with the targeted and untargeted compounds for three days at concentrations from 1 pM to 100 nM. After three days of treatment, the cells were harvested, and the ribonucleic acid (RNA) was purified from the cells. Expression levels of ALP, RUNx2, OSX, osteo-pontin (OPN), collagen 1A (Col-1A), OPG, RANKL, scle-rostin gene (SOST), and OC were quantified via quantitative reverse transcription polymerase chain reaction (RT-qPCR). Once the biological activity of the conjugates was confirmed, they were tested in vivo in a fracture model. Aseptic surgical techniques were used to place a 23-gage needle as in intramedullary nail in the femur of anesthetized, 12-week-old Swiss Webster mice for internal fixation before fracture. Femur fractures were induced using a drop weight fracture device from RISystem. The mice received buprenorphine for three days post fracture. […] Fracture healing was assessed using microCT (Scanco Medical Ag). Morphometric parameters were quantified in the 100 widest slices of the fracture callus. Trabecular thickness (TbTh), trabecular spacing (TbSp), total volume (TV), and volume of calcified callus (BV) were calculated. […]

healed fractured femur [3] = assay: Femur fracture model, postmortem four-point bend of the healed femur, CD-1 mice; type: in vivo, CD-1 male mice; settings: 4 weeks, 50 nmol daily subcutaneous (50×), n=10
Protocol: The targeted conjugates were synthesized using standard Fmoc solid-phase peptide synthesis, as described above. To ensure the conjugates' activity, mouse pre osteo-blast (MCTC3-1) cells were treated with the targeted and untargeted compounds for three days at concentrations from 1 pM to 100 nM. After three days of treatment, the cells were harvested, and the ribonucleic acid (RNA) was purified from the cells. Expression levels of ALP, RUNx2, OSX, osteo-pontin (OPN), collagen 1A (Col-1A), OPG, RANKL, scle-rostin gene (SOST), and OC were quantified via quantitative reverse transcription polymerase chain reaction (RT-qPCR). Once the biological activity of the conjugates was confirmed, they were tested in vivo in a fracture model. Aseptic surgical techniques were used to place a 23-gage needle as in intramedullary nail in the femur of anesthetized, 12-week-old Swiss Webster mice for internal fixation before fracture. Femur fractures were induced using a drop weight fracture device from RISystem. The mice received buprenorphine for three days post fracture. The mice were dosed subcutaneously each day for two weeks, three weeks, 4 weeks, or 17 days. Fracture healing was assessed using microCT (Scanco Medical Ag). Morphometric parameters were quantified in the 100 widest slices of the fracture callus. Trabecular thickness (TbTh), trabecular spacing (TbSp), total volume (TV), and volume of calcified callus (BV) were calculated. Fractured femurs were tested for strength in a four-point bend to failure using an Electro Force TestBench (TA Instruments). Lower supports were 10 mm apart on the anterior face of the femur in contact with the proximal and distal diaphysis. Upper supports were 4 mm apart and spanned the entire fracture callus on the diaphysis. Force was applied from the posterior face of the femur with a displacement rate of 0.3 mm/sec. Peak load, yield load, stiffness, displacement post yield, work to fracture, and deformation data were generated. […]

[4] = tested on: fracture callus of fractured femur; assay: Femur fracture model, microCT of the fracture callus (BV/TV, BV, TbTh, TbSp); type: in vivo, Swiss Webster mice
Description: All in vivo data included herein are from Swiss Webster mice. […] 1×concentration represents 1 nmol/day, 10× represents 10 nmol/day, 100×represents 100 nmol/day and most studies have an n of 5.
The term “BV/TV” means the bone volume divided by total volume of the 100 thickest micro CT slices of the fracture callus.
The term “TbTh” means the trabecular thickness of the 100 thickest micro CT slices of the fracture callus.
The term “[…]” means the overall bone volume of the 100 thickest micro CT slices of the fracture callus.
The term “TbSp” means the spacing between the trabecula in the 100 thickest micro CT slices of the fracture callus.
The targeted conjugates were synthesized using standard Fmoc solid-phase peptide synthesis, as described above. To ensure the conjugates' activity, mouse pre osteo-blast (MCTC3-1) cells were treated with the targeted and untargeted compounds for three days at concentrations from 1 pM to 100 nM. After three days of treatment, the cells were harvested, and the ribonucleic acid (RNA) was purified from the cells. Expression levels of ALP, RUNx2, OSX, osteo-pontin (OPN), collagen 1A (Col-1A), OPG, RANKL, scle-rostin gene (SOST), and OC were quantified via quantitative reverse transcription polymerase chain reaction (RT-qPCR). Once the biological activity of the conjugates was confirmed, they were tested in vivo in a fracture model. Aseptic surgical techniques were used to place a 23-gage needle as in intramedullary nail in the femur of anesthetized, 12-week-old Swiss Webster mice for internal fixation before fracture. Femur fractures were induced using a drop weight fracture device from RISystem. The mice received buprenorphine for three days post fracture. […] Fracture healing was assessed using microCT (Scanco Medical Ag). Morphometric parameters were quantified in the 100 widest slices of the fracture callus. Trabecular thickness (TbTh), trabecular spacing (TbSp), total volume (TV), and volume of calcified callus (BV) were calculated. Fractured femurs were tested for strength in a four-point bend to failure using an Electro Force TestBench (TA Instruments). Lower supports were 10 mm apart on the anterior face of the femur in contact with the proximal and distal diaphysis. Upper supports were 4 mm apart and spanned the entire fracture callus on the diaphysis. Force was applied from the posterior face of the femur with a displacement rate of 0.3 mm/sec. Peak load, yield load, stiffness, displacement post yield, work to fracture, and deformation data were generated. Statistical analysis was performed using a two-way analysis of variance (ANOVA) and a Tukey post-hoc analysis with significance reported at the 95% confidence level. All animal experiments were performed in accordance with protocols approved by Purdue University's Institutional Animal Care and Use Committee (IACUC).

healed fractured femur [5] = assay: Femur fracture model, postmortem four-point bend of the healed femur; type: in vivo, Swiss Webster mice
Description: All in vivo data included herein are from Swiss Webster mice. All mice received an osteotomy on their right femur and received subcutaneous drug administration daily for either 2, 3 or 4 weeks, as indicated, for each compound. 1×concentration represents 1 nmol/day, 10× represents 10 nmol/day, 100×represents 100 nmol/day and most studies have an n of 5.
The term “Peak Load” means a postmortem 4 point bend of the healed femur. Peak load represents the maximum force the healed femur withstood before it refractured.
The targeted conjugates were synthesized using standard Fmoc solid-phase peptide synthesis, as described above. To ensure the conjugates' activity, mouse pre osteo-blast (MCTC3-1) cells were treated with the targeted and untargeted compounds for three days at concentrations from 1 pM to 100 nM. After three days of treatment, the cells were harvested, and the ribonucleic acid (RNA) was purified from the cells. Expression levels of ALP, RUNx2, OSX, osteo-pontin (OPN), collagen 1A (Col-1A), OPG, RANKL, scle-rostin gene (SOST), and OC were quantified via quantitative reverse transcription polymerase chain reaction (RT-qPCR). Once the biological activity of the conjugates was confirmed, they were tested in vivo in a fracture model. Aseptic surgical techniques were used to place a 23-gage needle as in intramedullary nail in the femur of anesthetized, 12-week-old Swiss Webster mice for internal fixation before fracture. Femur fractures were induced using a drop weight fracture device from RISystem. The mice received buprenorphine for three days post fracture. The mice were dosed subcutaneously each day for two weeks, three weeks, 4 weeks, or 17 days. Fracture healing was assessed using microCT (Scanco Medical Ag). Morphometric parameters were quantified in the 100 widest slices of the fracture callus. Trabecular thickness (TbTh), trabecular spacing (TbSp), total volume (TV), and volume of calcified callus (BV) were calculated. Fractured femurs were tested for strength in a four-point bend to failure using an Electro Force TestBench (TA Instruments). Lower supports were 10 mm apart on the anterior face of the femur in contact with the proximal and distal diaphysis. Upper supports were 4 mm apart and spanned the entire fracture callus on the diaphysis. Force was applied from the posterior face of the femur with a displacement rate of 0.3 mm/sec. Peak load, yield load, stiffness, displacement post yield, work to fracture, and deformation data were generated. Statistical analysis was performed using a two-way analysis of variance (ANOVA) and a Tukey post-hoc analysis with significance reported at the 95% confidence level. All animal experiments were performed in accordance with protocols approved by Purdue University's Institutional Animal Care and Use Committee (IACUC).

[6] = 17 days, 1, 10 and 100 nmol daily subcutaneous, n=5

## Annexin_mp4_(D)E10: Annexin 1 N-terminal fragment with 10 glutamic acids, SEQ ID NO: 26, FIG. 81 (Ac-AMVSEFLKQAWFIENEEQEYVQTVY-{mini PEG-mini PEG-mini PEG-mini PEG-dE-dE-dE-dE-dE-dE-dE-dE-dE-dE})
Healed fractured femur [1]
  Max load (bone strength): raises bone strength
  Work to fracture (bone strength): raises bone strength

## Preptin(1-34)_mp4_(D)E10: Preptin (1-34) with mp4 linker and 10 glutamic acids, SEQ ID NO: 24, FIG. 70 ({dE-dE-dE-dE-dE-dE-dE-dE-dE-dE-mp4}-VRGASQRWTDYQFFGVPYRPFDPLVAQSTSVD)
[2]
  BV (bone volume, bone mineralization): significantly raises bone mineralization
  BV/TV (bone density): significantly raises bone density
Healed fractured femur [3]
  Max load (bone strength): significantly raises bone strength
  Post yield displacement (bone brittleness): significantly reduces the bone brittleness
  Work to fracture (bone strength): significantly raises bone strength

## QK_mp4_(D)E10: VEGF mimetic 15 amino acid peptide QK attached by mini-peg spacer to 10 glutamic acids, SEQ ID NO: 25 ({dE-dE-dE-dE-dE-dE-dE-dE-dE-dE-mp4}-KLTWQELYQLKYKGI)
[4]; [6]
  BV (bone volume, bone mineralization): raises bone mineralization
  BV/TV (bone density): raises bone density
Healed fractured femur [5]; [6]
  Max load (bone strength): raises bone strength
  Work to fracture (bone strength): raises bone strength

## substance P D10: substance P with 4 mini PEG linker and conjugated with 10 aspartate acids, SEQ ID NO: 4/43, FIG. 32 (chain 1 {Asp-Asp-Asp-Asp-Asp-Asp-Asp-Asp-Asp-Asp-mp4}-RPKPQQFFGLM; chain 2 DDDDDDDDDD[mp4]RPKPQQFFGLM; ends and bridges not checked)
[4]; 4 weeks, various concentrations (1, 10 and in part 100 nmol/day), subcutaneous daily
  BV/TV: dose dependent manner
Healed fractured femur [5]; 4 weeks, 10× (10 nmol/day)
  peak load (max load) of healed femur: 30-35 Newtons
